In article PMC9143450, “Oxonitrogenated Derivatives of Eremophilans and Eudesmans: Antiproliferative and Anti-Trypanosoma cruzi Activity” (Molecules, 2022):

Experiments:
WiDr = experiment: Antiproliferative SRB assay (NCI protocol), WiDr; format: cell-based, human; conditions: for GI50: WiDr (colon), 48 h drug exposure, SRB, ± SD; for Selectivity index (SI) on tumor cells: CC50 splenocytes / GI50 WiDr
Procedure: (§1) In vitro antiproliferative activity was evaluated using the protocol of the National Cancer Institute (NCI) after 48 h of drug exposure using the sulforhodamine B (SRB) assay.
(§2) The following human solid tumor cell lines were used in this study: HBL-100 (breast), HeLa (cervix), SW1573 (non-small cell lung), T-47D (breast), A549 (lung), and WiDr (colon). These cell lines were a kind gift from Prof. G. J. Peters (VU Medical Center, Amsterdam, The Netherlands). Cells were maintained in 25 cm^2 culture flasks in RPMI 1640 supplemented with 5% heat-inactivated fetal calf serum and 2 mM L-glutamine in a 37 °C, 5% CO2, 95% humidified air incubator. Exponentially growing cells were trypsinized and resuspended in antibiotic containing medium (100 units penicillin G and 0.1 mg of streptomycin per mL). Single cell suspensions displaying > 97% viability by trypan blue dye exclusion test were subsequently counted. After counting, dilutions were made to give the appropriate cell densities for inoculation onto 96-well microtiter plates. Cells were inoculated in a volume of 100 μL per well at densities of 5000 (WiDr and T-47D), and 2500 (A549, HeLa, SW1573 and HBL-100) cells per well, based on their doubling times.
(§3) Chemosensitivity tests were performed using the SRB assay of the NCI with slight modifications. Briefly, pure compounds were initially dissolved in DMSO at 400 times the desired final maximum test concentration. Control cells were exposed to an equivalent concentration of DMSO (0.25% v/v, negative control). Each agent was tested in triplicates at different dilutions in the range 1–100 μM. Drug treatment started on day 1 after plating. Drug incubation periods were 48 h, after which cells were precipitated with 25 μL of ice-cold 50% (w/v) trichloroacetic acid and fixed for 60 min at 4 °C. Then, the SRB assay was performed. The optical density (OD) of each well was measured at 530 nm, using BioTek’s PowerWave XS Absorbance Microplate Reader. Values were corrected for background OD from wells containing only culture medium. The percentage growth (PG) was calculated with respect to untreated control cells (C) at each level of drug concentrations based on the difference in OD at the start time (T0) and at the end of drug exposure (T), according to NCI formulas. Therefore, if T is greater than or equal to T0, the calculation is 100 × ((T − T0)/(C − T0)). If T is lower than T0, denoting cell death, the calculation is 100 × ((T − T0)/(T0)). The effect is defined as the growth percentage, where 50% growth inhibition (GI50) represents the concentration at which PG is +50. Based on these calculations, a PG value of 0 corresponds to the number of cells present at the beginning of drug exposure, while negative PG values denote net cell death.

[1] = test system: HeLa, T-47D, WiDr, A549, HBL-100, and SW1573 cell lines; experiment: Antiproliferative SRB assay, whole panel of human solid tumor cell lines; format: cell-based; conditions: for GI50: Homo sapiens, minimal to maximal GI50 across the cell lines tested, 48 h, SRB, read-out: GI50 values, range over all cell lines tested; for Antiproliferative activity (in words): solid tumor cell lines evaluated
Procedure: as §1, §2, §3

T-47D = experiment: Antiproliferative SRB assay (NCI protocol), T-47D; format: cell-based, human; conditions: for Selectivity index (SI) on tumor cells: CC50 splenocytes / GI50 T-47D; for GI50: T-47D (breast), 48 h drug exposure, SRB, ± SD
Procedure: as §1, §2, §3

HeLa = experiment: Antiproliferative SRB assay (NCI protocol), HeLa; format: cell-based, human; conditions: for Selectivity index (SI) on tumor cells: CC50 splenocytes / GI50 HeLa; for GI50: HeLa (cervix), 48 h drug exposure, SRB, ± SD
Procedure: as §1, §2, §3

[2] = test system: Trypanosoma cruzi epimastigotes (RA strain); experiment: In vitro anti-Trypanosoma cruzi assay ((3H) thymidine uptake); format: cell-based; conditions: for IC50: Trypanosoma cruzi, epimastigotes (RA strain), ± SD; for Selectivity Index on T. cruzi epimastigotes: CC50 splenocytes / IC50 epimastigotes; for Trypanocidal activity (in words): T. cruzi
Procedure: Trypanosoma cruzi epimastigotes (RA strain, from discrete typing unit (DTU) VI) were grown in a biphasic medium. Cultures were maintained by weekly passages at 28 °C [18].
The growth inhibition of T. cruzi epimastigotes was evaluated by a (^3H) thymidine uptake assay as previously described. Natural sesquiterpenes and derivatives were evaluated at concentrations ranging from 1.5 to 50 µg/mL. Benznidazole (Active Pharmaceutical Ingredient) was used as positive control (Elea). The percentage of inhibition was calculated as 100 = {((cpm of treated parasites)/(cpm of untreated parasites)) × 100}.
Figure 5 Effect of the natural sesquiterpene tessaric acid (1), ilicic acid (2), and ilicic alcohol (3) and their derivatives on T. cruzi. Epimastigotes (RA strain) were cultured in the presence of the compounds (50–1.5 µg/mL). Determinations were performed by triplicate. The results are expressed as the mean ± SD. (A) Effect of tessaric acid and derivatives on epimastigotes; (B) Effect of ilicic acid and derivatives on epimastigotes; (C) Effect of ilicic alcohol and derivatives on epimastigotes.

SW1573 = experiment: Antiproliferative SRB assay (NCI protocol), SW1573; format: cell-based, human; conditions: for GI50: SW1573 (non-small cell lung), 48 h drug exposure, SRB, ± SD
Procedure: as §1, §2, §3

[3] = Cytotoxicity on primary cell culture (flow cytometry, PI); format: cell-based; conditions: Balb/c, mouse, primary splenocytes (spleen cells), ± SD, read-out: Cytotoxic activity on spleen cells (CC50)
Procedure: The cytotoxicity of the natural sesquiterpenes (1–3) and derivatives (4–19) was determined on primary cell cultures (splenocytes obtained from Balb/c mouse). […] Derivatives of tessaric acid have shown an improvement in CC50 values in comparison with the natural sesquiterpene 1. […] All the derivatives synthesized from alcohol ilicic (compounds 10–19) were more toxic to mammalian cells than the natural compound (3).
The cytotoxicity of the compounds was evaluated on splenocytes obtained from Balb/c mouse (1.5 × 10^5) and incubated with different drug dilutions (5–200 μg/mL) as previously described. Cell death was determined by flow cytometry using a BD FACSaria II cytometer. Cells incubated only with drug vehicle were used as 100% viability control, and death percentage was calculated according to the following formula: Death%=1−(%PI^−cells)drug−treated/(%PI^−cells)100% viability control × 100
The concentration capable of causing 50% cell death (CC50) was determined using a non-linear regression approach.

HBL-100 = experiment: Antiproliferative SRB assay (NCI protocol), HBL-100; format: cell-based, human; conditions: HBL-100 (breast), 48 h drug exposure, SRB, ± SD
Procedure: as §1, §2, §3

A549 = experiment: Antiproliferative SRB assay (NCI protocol), A549; format: cell-based, human; conditions: for Selectivity index (SI) on tumor cells: CC50 splenocytes / GI50 A549; for GI50: A549 (lung), 48 h drug exposure, SRB, ± SD
Procedure: as §1, §2, §3

Row | Compound | GI50 (WiDr; Homo sapiens) [µM] | Selectivity index (SI) on tumor cells (T-47D) | GI50 (T-47D; Homo sapiens, T47D) [µM] | Selectivity index (SI) on tumor cells (HeLa) | GI50 (HeLa; Homo sapiens) [µM] | IC50 [2] [µM] | GI50 (SW1573; Homo sapiens) [µM] | CC50 [3] [µM] | GI50 (HBL-100; Homo sapiens) [µM] | GI50 (A549; Homo sapiens) [µM] | Selectivity index (SI) on tumor cells (WiDr) | Selectivity Index on T. cruzi epimastigotes [2] | further results
1 | C=C(C(=O)N(c1ccccc1)C(C)(C)C(=O)NC1CCCCC1)C1CCC2(C)CCCC(C)(O)C2C1 (stereo not shown) [Compound 14] | 20 | >17 | 23 | >24 | 17 | > 101 | 27 | > 405 | 20 | 22 |  |  | Selectivity index (IS) values, over the tumor cell lines evaluated ([1]; CC50 splenocytes / GI50 tumor cells, across cell lines): greater than 15; GI50 [1]: 17 to 64 µM; Selectivity index (SI) on tumor cells (A549): >18.4
2 | C#CCCCc1cn(CC(=C)[C@@H]2CC[C@@]3(C)CCC[C@@](C)(O)C3C2)nn1 (stereo partly shown) [Compound 17] | 31 | 1.4 | 29 | 1.3 | 31 | 14.8 |  | 40.4 |  |  | 1.3 | 2.7 | 
3 | N.N.[Cl][Pt][Cl] [Cisplatin, reference compound] |  |  |  |  |  |  |  |  |  |  |  |  | GI50 (WiDr): 23 µM; GI50 (T-47D): 17 µM; GI50 (HeLa): 1.8 µM; GI50 (SW1573): 2.7 µM; GI50 (HBL-100): 1.9 µM; GI50 (A549): 4.9 µM
4 | C=C(CO)[C@@H]1CC[C@@]2(C)CCC[C@@](C)(O)[C@@H]2C1 [Compound 3, ilicic alcohol] | > 100 |  | > 100 |  | > 100 | 156 | > 100 |  | > 100 |  |  |  | Antiproliferative activity (in words) [1]: did not show antiproliferative activity; Trypanocidal activity (in words) [2]: nor trypanocidal activity
5 | C=C(Cn1cc(-c2ccccc2)nn1)[C@@H]1CC[C@@]2(C)CCC[C@@](C)(O)C2C1 (stereo partly shown) [Compound 19] | 41 | 3.1 | 61 | 2.4 | 79 | 48.2 |  | 187 |  |  | 4.6 | 3.9 | 
6 | C=C(C(=O)O)[C@@H]1CC[C@@]2(C)CCC[C@@](C)(O)[C@@H]2C1 [Compound 2, ilicic acid] | > 100 |  | > 100 |  | > 100 | > 198 | > 100 |  | > 100 |  |  |  | Antiproliferative activity (in words) [1]: did not show antiproliferative activity; Trypanocidal activity (in words) [2]: nor trypanocidal activity
7 | C=C(C(=O)N(Cc1ccccc1)C(C)(C)C(=O)NC(C)(C)C)[C@@H]1CCC2=CC(=O)C[C@H](C)[C@@]2(C)C1 [Compound 5] | > 100 |  | > 100 |  | > 100 | 9.3 | > 100 | 44.7 | > 100 | > 100 |  | 4.8 | 
8 | C=C(C(=O)N(c1ccccc1)C(C)(C)C(=O)NC(C)(C)C)[C@@H]1CCC2=CC(=O)C[C@H](C)[C@@]2(C)C1 [Compound 4] | 98 | 0.2 | 95 | 0.3 | 68 | 16.3 | 57 | 17.3 | > 100 | 68 | 0.2 | 1.1 | Selectivity index (SI) on tumor cells (SW1573; CC50 splenocytes / GI50 SW1573): 0.3; Selectivity index (SI) on tumor cells (A549): 0.25
9 | C=C(Cn1cc(Cc2ccccc2)nn1)[C@@H]1CC[C@@]2(C)CCC[C@@](C)(O)C2C1 (stereo partly shown) [Compound 18] | 39 | 1.4 | 44 |  | > 100 | 30.2 |  | 62.2 |  |  | 1.6 | 2.1 | 
10 | C=C(Cn1cc(CCCCCCCCCC)nn1)[C@@H]1CC[C@@]2(C)CCC[C@@](C)(O)C2C1 (stereo partly shown) [Compound 16] | 12 | 4.8 | 17 | 6.3 | 13 | 8.8 |  | 82.4 |  |  | 6.8 | 9.4 | GI50 [1]: 12 to 17 µM
